Source: ChEMBL document CHEMBL3044656, “Influence of soil fumigation on 2,4-D and dicamba carryover in fresh market tomato” (Crop Prot, 2006)

Experiments:
[1] = Half life of the compound
[2] = test system: Solanum lycopersicum; test: Phytotoxicity in Solanum lycopersicum (tomato) plant in fumigated soil assessed as plant vigour at 2.28 kg/ha after 134 days (reference value: 82%); assay type: organism-based; details: in vivo, other, 3216 h
[3] = test system: Solanum lycopersicum; test: Phytotoxicity in Solanum lycopersicum (tomato) plant in non-fumigated soil assessed as decrease in total fruit yield at 1.14 to 2.28 kg/ha after 174 days relative to untreated control; assay type: organism-based; parameters: scale not given: the % may be the effect or the level left; details: in vivo, other, 4176 h
[4] = test system: Solanum lycopersicum; test: Phytotoxicity in Solanum lycopersicum (tomato) plant assessed as plant vigour at 1.14 kg/ha after 134 days (reference value: 82%); assay type: organism-based; details: in vivo, 3216 h

Row | Structure (SMILES) | half-life [1] [days] | Activity [2] [%] | Activity [3] [%] | Activity [4] [%]
1 | COc1c(Cl)ccc(Cl)c1C(=O)O [3,6 DICHLOROMETHOXYBENZOIC ACID] | 14 |  |  | 
2 | O=C(O)COc1ccc(Cl)cc1Cl [2,4-DICHLOROPHENOXYACETIC ACID] | 10 | 80 | 9 | 83
